According to ChEMBL document CHEMBL3045334, “Microwave-assisted synthesis and evaluation of naphthalimides derivatives as free radical scavengers” (Med Chem Res, 2011):

system: Radical scavenging activity; test: Antioxidant activity assessed as DPPH radical scavenging activity; assay type: functional; conditions: not given

Row | IC50 | Compound
1 | Not Active | O=C1OC(=O)c2ccc(Br)c3cccc1c23

same assay, conditions: read-out: IC50

Row | Compound | IC50
2 | CC(C)c1ccc2c(c1)CCC1[C@@](C)(CN3C(=O)c4cccc5c(Br)ccc(c45)C3=O)CCC[C@]21C (some centres not stated) | 208 µM
3 | CCCCN1C(=O)c2cccc3cccc(c23)C1=O | 183 µM
4 | CCCCNc1ccc2c3c(cccc13)C(=O)N(C[C@@]1(C)CCC[C@]3(C)c4ccc(C(C)C)cc4CCC13)C2=O (some centres not stated) | 206 µM
5 | O=C1c2cccc3c(NCCO)c([N+](=O)[O-])cc(c23)C(=O)N1CCO | 231 µM
6 | O=C1NC(=O)c2cccc3cccc1c23 | 149 µM
7 | NN1C(=O)c2cccc3cccc(c23)C1=O | 187 µM
8 | CC(C)c1ccc2c(c1)CCC1[C@@](C)(CN3C(=O)c4cccc5cccc(c45)C3=O)CCC[C@]21C (some centres not stated) | 166 µM
9 | CCCNc1ccc2c3c(cccc13)C(=O)N(C[C@@]1(C)CCC[C@]3(C)c4ccc(C(C)C)cc4CCC13)C2=O (some centres not stated) | 210 µM
10 | O=C1OC(=O)c2cccc3cccc1c23 [1,8-NAPHTHALIC ANHYDRIDE] | 1770 µM
11 | O=C1c2cccc3cccc(c23)C(=O)N1CCO | 155 µM
12 | CCCCNc1c([N+](=O)[O-])cc2c3c(cccc13)C(=O)N(CCCC)C2=O | 215 µM
13 | CCCNc1c([N+](=O)[O-])cc2c3c(cccc13)C(=O)N(CCC)C2=O | 231 µM
14 | CCCCNc1ccc2c3c(cccc13)C(=O)N(CCCC)C2=O | 320 µM
15 | CC(C)c1ccc2c(c1)CCC1[C@@](C)(CN3C(=O)c4cccc5c(NCCO)ccc(c45)C3=O)CCC[C@]21C (some centres not stated) | 221 µM
16 | O=C1c2cccc3c(Br)ccc(c23)C(=O)N1Cc1ccccc1 | 238 µM
17 | CCCNc1ccc2c3c(cccc13)C(=O)N(CCC)C2=O | 351 µM
18 | CCCN1C(=O)c2cccc3cccc(c23)C1=O | 179 µM

The next lines start with the values.

Row | IC50 | Compound
19 | 65.8 µM | Cc1cc(C(C)(C)C)c(O)c(C(C)(C)C)c1 [BUTYLATED HYDROXYTOLUENE]
20 | 130 µM | O=C1c2cccc3cccc(c23)C(=O)N1c1ccccc1
21 | 61.9 µM | CC(C)c1ccc2c(c1)CCC1[C@@](C)(CN3C(=O)c4cccc5c(NCc6ccccc6)ccc(c45)C3=O)CCC[C@]21C (some centres not stated)
22 | 84.6 µM | O=C1c2cccc3c(NCc4ccccc4)ccc(c23)C(=O)N1Cc1ccccc1
23 | 43.1 µM | O=C1c2cccc3c(NCc4ccccc4)c([N+](=O)[O-])cc(c23)C(=O)N1Cc1ccccc1
24 | 54 µM | O=C1OC(=O)c2cc([N+](=O)[O-])c(Br)c3cccc1c23
25 | 147 µM | O=C1c2cccc3cccc(c23)C(=O)N1Nc1ccccc1
26 | 143 µM | O=C1c2cccc3cccc(c23)C(=O)N1Cc1ccccc1
27 | 42.2 µM | Cc1ccc(Nc2c([N+](=O)[O-])cc3c4c(cccc24)C(=O)N(c2ccc(C)cc2)C3=O)cc1
